This note sets out measurements from PMC8070189, “Native Structure-Based Peptides as Potential Protein–Protein Interaction Inhibitors of SARS-CoV-2 Spike Protein and Human ACE2 Receptor” (Molecules, 2021).

The assay addresses RBD domain of SARS-CoV-2 protein (Severe acute respiratory syndrome coronavirus 2, UniProt P0DTC2). The class given is binding.

MYEEFKAED: the “binding affinity to RBD of S protein, in words” value was “extremely weak binder”.
